Like-named read-outs stand apart in the source and are kept apart here.
How the values were obtained:
C1b domain of human PKCα = target: T1, C1b domain of human PKCα (Homo sapiens, UniProt P17252); assay: biochemical; format: binding; conditions: 3H-PDBu competition
T1 construct: Genes encoding C1b domains of human PKCα, δ, ε, θ, and PKD1 (PKCμ) were synthesized; made in house; host or cells: E. coli BL21(DE3)

C1b domain of human PKCδ = target: T2, C1b domain of human PKCδ (Homo sapiens, UniProt Q05655); assay: biochemical; format: binding; conditions: 3H-PDBu competition
T2 construct: Genes encoding C1b domains of human PKCα, δ, ε, θ, and PKD1 (PKCμ) were synthesized; made in house; host or cells: E. coli BL21(DE3)
T2 sequence (Q05655 230-280 limits assumed): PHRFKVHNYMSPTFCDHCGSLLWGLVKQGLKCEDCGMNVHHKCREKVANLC
Summary of the method: (§1)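 Binding is reported as Ki, derived from IC50 using Cheng-Prusoff with the experimentally determined 3H-PDBu Kd of each protein preparation. Tracer displacement from recombinant human GST-C1b (E. coli BL21(DE3)) was read by filter scintillation after 10 min at 37° C plus 20 min on ice.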

C1b domain of human PKCε = target: T3, C1b domain of human PKCε (Homo sapiens, UniProt Q02156); assay: biochemical; format: binding; conditions: 3H-PDBu competition
T3 construct: Genes encoding C1b domains of human PKCα, δ, ε, θ, and PKD1 (PKCμ) were synthesized; made in house; host or cells: E. coli BL21(DE3)
T3 sequence (Q02156 242-292 limits assumed): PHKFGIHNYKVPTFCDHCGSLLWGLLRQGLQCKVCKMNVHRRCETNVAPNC
Summary of the method: as §1

C1b domain of human PKCθ = target: T4, C1b domain of human PKCθ (Homo sapiens, UniProt Q04759); assay: biochemical; format: binding; conditions: 3H-PDBu competition
T4 construct: Genes encoding C1b domains of human PKCα, δ, ε, θ, and PKD1 (PKCμ) were synthesized; made in house; host or cells: E. coli BL21(DE3)
T4 sequence (Q04759 231-281 limits assumed): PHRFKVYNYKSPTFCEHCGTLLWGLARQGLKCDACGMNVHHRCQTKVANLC
Summary of the method: as §1

[1] = target: T5, C1b domain of human PKD1 (PKCμ) (Homo sapiens, UniProt Q15139); assay: Competitive 3H-PDBu binding assay, C1b domain of PKD1 (PKCμ); conditions: 3H-PDBu competition
T5 construct: Genes encoding C1b domains of human PKCα, δ, ε, θ, and PKD1 (PKCμ) were synthesized; made in house; host or cells: E. coli BL21(DE3)
T5 sequence (Q15139 270-320 limits assumed): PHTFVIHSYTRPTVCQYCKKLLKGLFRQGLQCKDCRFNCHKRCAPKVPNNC
Summary of the method: as §1

[2] = test system: phosphorylation of PKCμ, PKCδ and Erk1/2 in A549 lung cancer cells; assay: Western blot of activation of PKC and downstream target protein in A549 cells; format: cell-based; conditions: 30 minutes
Protocol: According to the methods described in patent (WO/2017/083783) A549 lung cancer cells (˜3 million cells) were seeded in 10 cm tissue culture dishes (or ˜1 million cells in 6 cm dish) and grown overnight. Cells were then treated with different drugs at indicated concentrations for 30 minutes. Cell lysate preparation, protein quantitation, SDS-PAGE, and Western blotting procedures are described (WO/2017/083783). β-actin or Vinculin was used as loading controls. Imagequant LAS4000 (GE) was used to scan membranes if secondary antibodies anti-mouse IgG HRP conjugate or anti-rabbit IgG HRP conjugate (dilutions from 1:2000-1:10000) were used. For ProteinSimple Wes system, manufacture's procedure was followed (ProteinSimple 12-230 kDa Wes Separation Module) for sample preparation, loading, running, and data analysis.
Phosphorylation of these sites has been linked to acute activation or catalytic activity of the PKC isoforms and Erk1/2. High level of phosphorylation indicates strong activation.
A subset of the diterpenoid compounds with good binding affinity to novel PKC isoforms and PKCμ was tested at two different concentrations in A549 cells to assess activation of PKCμ, PKCδ, and Erk1/2 by Western blot analysis. In addition to the phospho-specific antibodies described above, an additional phospho-specific antibody P-PKCδ (S299) (Abcam cat #133456) was also used. This antibody has been shown in the literature (Durgan et al., FEBS Lett. 2007, 581(18):3377-81, Novel phosphorylation site markers of protein kinase C delta activation) to be able to detect activation of PKCδ. K-101 (prostratin, 1 μM) was included as reference compounds.

A549 cell line = assay: Proliferation of A549 (CellTiter Glo); format: cell-based; conditions: read-out: IC50 μM (A549 Cell Line)
Summary of the method: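 Compound effect on proliferation was read as CellTiter Glo luminescence after 96 h exposure to a 3-fold dilution series (≤0.25% DMSO). A549 cells, which carry activating K-Ras, were plated at 1,000/well one day before dosing. IC50, relative IC50 and maximal inhibition were fitted from % inhibition versus DMSO control.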

Panc2.13 (Pancreatic) = assay: Proliferation of Panc2.13; format: cell-based; conditions: for IC50: read-out: IC50 Panc2.13 (Pancreatic)
Protocol: (§2) The diterpenoid compounds were tested in A549, a non-small cell lung cancer cell line harboring a K-Ras activating mutation. Briefly, A549 cells at a density of 1,000 cells/well were seeded in 96-well plates and incubated at 37° C. for 24 hours. A series of different concentrations of compound stocks (500×) were prepared by 3-fold serial dilution in DMSO. These compounds were further diluted in culture media and then added to cells so that the final DMSO concentration was not exceeding 0.25%. After 96 hours of incubation, 50 μL of CellTiter Glo reagent (Promega) was added to each well and luminescence was measured after 10 minutes using EnVision (PerkinElmer). Luminescence from cells treated with DMSO alone was set as Max and % of inhibition was calculated as follows: Inhibition %=(Max-Sample value)/Max×100. Data was analyzed using XL-fit software (ID Business Solutions Ltd.) and IC50, relative IC50, and % of top inhibition was calculated. Some of the compounds in this disclosure were very potent in blocking proliferation of A549 lung cancer cells at low nM range. In addition, potency of inhibiting A549 proliferation correlated well with its binding affinity to PKCs for this series of compounds. In other words, higher affinity binders had stronger inhibitory effects on A549 proliferation. This further support the notion that activation, rather than inhibition, of certain PKC isoforms is required to block proliferation of cancer cells, some of which may harbor K-Ras mutations. This is in sharp contrast to previous literature and common belief that inhibition of PKC is necessary to block cancer cell growth (Kang, 2014, New Journal of Science, 2014:1-36). Data presented here is in agreement with recent findings that many loss-of-function but not gain-of-function mutations of PKC isoforms have been identified in many human cancers (Antal et al., 2015, Cell, 160:489-502).
(§3) The compounds in this disclosure were tested for their potency in blocking proliferation of a few other cancer cells lines, including K-Ras mutant pancreatic cell lines Panc2.13 and KP-4, leukemia cell line HL-60, and lymphoma cell lines Namalwa and Mino. Similar procedures as in Example 67 were followed. Initial cell numbers seeded in 96-well plates were different for different cell lines: 3000 cells/well for Panc2.13; 800-1000 cells/well for KP-4; 5000 cells/well for HL-60; 5000-10000 cells/well for Namalwa and Mino. A ratio of (IC50 of K101)/(IC50 of compound) (data in parenthesis in Table 5) was used to normalize the compound potency from different assay batches to a common comparator K101.

KP-4 (Pancreatic) = assay: Proliferation of KP-4; format: cell-based; conditions: read-out: IC50 KP-4 (Pancreatic)
Protocol: as §2, §3

HL-60 (Leukemia) = assay: Proliferation of HL-60; format: cell-based
Namalwa (Lymphoma) = assay: Proliferation of Namalwa; format: cell-based; conditions: for IC50: read-out: IC50 Namalwa (Lymphoma)
Summary of the method: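 Proliferation was measured in the K-Ras mutant pancreatic lines and in HL-60 and Namalwa cells. These were plated at densities set per line and left 24 h before compound was added. After 96 h with serially diluted compound, viability was read by CellTiter Glo and IC50 derived.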

Mino (Lymphoma) = assay: Proliferation of Mino; format: cell-based; conditions: for IC50: read-out: IC50 Mino (Lymphoma)
Summary of the method: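 Luminescent ATP read-out (CellTiter Glo) after 96 h compound exposure gave % inhibition relative to DMSO-treated cells, from which IC50 was fitted. Seeding densities were line-specific, from 800 to 10000 cells/well. Potency across batches was normalised to reference compound K101.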

[3] = test system: NFκB-driven transcription in HeLa-NFκB luciferase reporter cell line; assay: NFκB luciferase reporter assay
PANC1 cells = assay: Sphere formation assay; format: cell-based; conditions: Homo sapiens, PANC-1, read-out: concentration exhibiting at least 50% inhibition on the sphere forming efficiency
Protocol: A group of diterpenoid compounds of the present disclosure were tested to assess their effects on blocking formation of spheres from cancer cell lines such as PANC1, a K-Ras mutant pancreatic cell line. Briefly, PANC1 cells were harvested, re-suspended as single cell suspensions, counted and seeded into Ultra Low Attachment Culture 96-well plate (Corning, Cat #3474) at 100 cells/well in 100 μl of complete media (with 10% FBS) containing 2% Matrigel (Corning, Cat #354234) and DMSO or compounds. Six replicates per condition were seeded. The seeded cells were placed in the 37° C. tissue culture incubator. 10 μl of low serum containing media (with 0.1% FBS) was added to each well every week. Spheres formed after 3-4 weeks were counted. Sphere forming efficiency was expressed as percentage of # of spheres/ # of cells seeded.

[4] = Homo sapiens, HeLa, 16 h, read-out: NFκB-luc HeLa cells EC50 (μM)

SMILES: CC1=C[C@H]2[C@@]3(O)[C@H](C)C[C@]4(OC(=O)[C@@H](N)Cc5ccccc5)[C@H]([C@@H]3C=C(CO)C[C@]2(O)C1=O)C4(C)C
- Ki (C1b domain of human PKCα): 400 to 800 nM
- Ki (C1b domain of human PKCδ): 30 to 60 nM
- Ki (C1b domain of human PKCε): 100 to 200 nM
- Ki (C1b domain of human PKCθ): 30 to 60 nM
- Ki [1]: 10 to 30 nM
- phosphorylation of PKCμ, PKCδ and Erk1/2 ([2]; 3 μM): induced phosphorylation
- IC50 (A549 cell line; 96 hours, CellTiter Glo): 0.6 to 1 µM
- ratio (IC50 of K101)/(IC50 of compound) Panc2.13 (Panc2.13 (Pancreatic)): 0.75
- IC50 (Panc2.13 (Pancreatic)): 1000 to 2000 nM
- IC50 (KP-4 (Pancreatic)): 600 to 1000 nM
- ratio (IC50 of K101)/(IC50 of compound) HL-60 (HL-60 (Leukemia)): 0.9
- IC50 (HL-60 (Leukemia); read-out: IC50 HL-60 (Leukemia)): 200 to 600 nM
- ratio (IC50 of K101)/(IC50 of compound) Namalwa (Namalwa (Lymphoma)): 0.19
- IC50 (Namalwa (Lymphoma)): 200 to 600 nM
- ratio (IC50 of K101)/(IC50 of compound) Mino (Mino (Lymphoma)): 0.57
- IC50 (Mino (Lymphoma)): 100 to 200 nM
- EC50 ([3]; read-out: NFκB-luc HeLa cells EC50, 16h): 0.2 to 0.6 µM

SMILES: CC1=C[C@H]2[C@@]3(O)[C@H](C)C[C@]4(OC(=O)[C@@H](N)CCCc5ccccc5)[C@H]([C@@H]3C=C(CO)C[C@]2(O)C1=O)C4(C)C
- Ki (C1b domain of human PKCα): 60 to 100 nM
- phosphorylation of PKCμ, PKCδ and Erk1/2 ([2]; 0.3 μM): induced high levels of phosphorylation
- IC50 (A549 cell line; Homo sapiens, A549, 96 h): 0.06 to 0.1 µM
- ratio (IC50 of K101)/(IC50 of compound) Panc2.13 (Panc2.13 (Pancreatic)): 3.65
- IC50 (Panc2.13 (Pancreatic)): 200 to 600 nM
- IC50 (KP-4 (Pancreatic)): 100 to 200 nM
- ratio (IC50 of K101)/(IC50 of compound) HL-60 (HL-60 (Leukemia)): 1.79
- IC50 (HL-60 (Leukemia); Homo sapiens, HL-60, read-out: IC50 HL-60 (Leukemia)): 30 to 60 nM
- ratio (IC50 of K101)/(IC50 of compound) Namalwa (Namalwa (Lymphoma)): 1.53
- IC50 (Namalwa (Lymphoma)): 30 to 60 nM
- ratio (IC50 of K101)/(IC50 of compound) Mino (Mino (Lymphoma)): 6
- IC50 (Mino (Lymphoma); Homo sapiens, MINO): 10 to 30 nM
- IC50 (PANC1 cells): ≤ 1500 nM
- EC50 [3, 4]: 0.06 to 0.1 µM

SMILES: CC1=C[C@H]2[C@@]3(O)[C@H](C)C[C@]4(OC(=O)CCc5ncc(-c6ccc(Cl)cc6)o5)[C@H]([C@@H]3C=C(CO)C[C@]2(O)C1=O)C4(C)C
- Ki (C1b domain of human PKCα): 60 to 100 nM
- phosphorylation of PKCμ, PKCδ and Erk1/2 ([2]; 0.3 μM): induced high levels of phosphorylation
- IC50 (A549 cell line; Homo sapiens, A549, 96 h): 0.03 to 0.06 µM
- ratio (IC50 of K101)/(IC50 of compound) HL-60 (HL-60 (Leukemia)): 5.71
- IC50 (HL-60 (Leukemia); Homo sapiens, HL-60, 96 h, read-out: IC50 HL-60 (Leukemia)): 100 to 600 nM
- ratio (IC50 of K101)/(IC50 of compound) Namalwa (Namalwa (Lymphoma)): 1.15
- IC50 (Namalwa (Lymphoma)): 30 to 60 nM
- ratio (IC50 of K101)/(IC50 of compound) Mino (Mino (Lymphoma)): 5.36
- IC50 (Mino (Lymphoma); Homo sapiens, MINO): 10 to 30 nM
- EC50 [3, 4]: 0.1 to 0.2 µM
